Test results: publication PMC7804859, “A metabolically stable apelin-17 analog decreases AVP-induced antidiuresis and improves hyponatremia” (Nature Communications, 2021)
Values joined by “and” are separate entries in the source; they are usually repeats but may differ in a detail not shown here. Identical values can stand only once.

Tests used:
[1] = tested on: alert Sprague-Dawley rats; assay: Mean arterial blood pressure in alert rats; assay type: in vivo, rat; set-up: SBP_Baseline / SBP_3h / SBP_24h: unit not given here
Protocol: 291 Blood pressure measurements
292 Rats were implanted with a right femoral artery catheter which was passed beneath the skin
293 under isoflurane anesthesia. Blood pressure (BP) was recorded in male alert Sprague Dawley
294 rats after a recovery period of at least 24 hours, with a PowerLab/Labchart system
295 (ADInstruments, Dunedin, New Zealand) connected to the arterial catheter via a pressure
296 transducer. Mean arterial BP (MABP) was calculated from the arterial pressure signal as
297 previously described 7. The compound was administered s.c. after baseline BP recording for at
298 least 30 minutes. BP was then measured at 3 and 24 hours after administration. At the end of
299 the experiment, animals were killed with a lethal dose of pentobarbital (Dolethal ®, 150

apelin-R and V2-R = assay: dDAVP-induced cAMP production in CHO cells stably expressing both the apelin-R and the V2-R; assay type: cell-based
hyponatremic rats = assay: Plasma AVP and apelin-IR levels in hyponatremic rats (RIA); assay type: in vivo, rat
Protocol: (§1) 187 Apelin radioimmunoassay
189 until use for apelin RIA.
The supernatants were collected and
The samples were dried and dissolved in
201 centrifuged (17000 x g, 4°C, 20 min). The supernatant (4 ml) was collected, and mixed with
The columns were then treated as described in
Samples (0.1ml) w ere mixed with 125I-
(§2) 212 used this radioligand instead of [Glp65, Nle75, Tyr77] [125I]-apelin13 since the substitution of
(§3) 214 derivatives as described previously by 3,4.
216 incubated for 10 min at room temperature.
This antiserum identified the apelin present in the
Most of the apelin in human plasma was
252 TechMedILL platfor m (Illkirch) reviewed and approved by the agriculture ministry regulating
256 Male Sprague-Dawley rats were killed by decapitation, and trunk blood was collected on ice
257 (into 50 µl of 0.3M EDTA (pH 7.4) per 1 ml of blood). Samples were centrifuged (2,600 x g,
258 4°C, 20 min), and the resulting plasma was split into 500 µl aliquots, to which we added 168
259 µl of 3N HCl before storage at -80°C. The AVP RIA was performed as previously described
260 5, using a specific AVP-[Arg8] antibody (final dilution, 1/4.5) and [125I]-(Tyr2Arg8)-AVP
261 (2200 Ci/mmol, Perkin-Elmer, Billerica, MA; 15000 dpm) as a tracer. […]

[2] = tested on: normonatremic Sprague-Dawley rats; assay: Blood and urine chemistry after 4 days of s.c. administration in rats; assay type: in vivo, rat; set-up: Plasma glucose: unit not given beside the values; Blood urea nitrogen / 24h Urine glucose: unit not given here
Protocol: Fractional excretion of water (in %) was calculated using the following formula: (plasma creatinine/urine creatinine) × 100. Fractional excretion of sodium (in %) was calculated using the following formula: (plasma creatinine × urine sodium/urine creatinine × plasma sodium) × 100. Blood and urine creatinine, urea nitrogen, and glucose levels were determined using an AU5800 Beckman Coulter chemistry analyzer (Beckman Coulter, Villepinte, France).

in vivo = details: for Apelin (plasma apelin-immunoreactive level): single animals
Protocol: as §1
188 Plasma samples (0.5 ml) were acidified with 0.175 ml of 3 mol/l HCl and stored at -80°C
189 until use for apelin RIA. Before thawing the sample on ice, 0.05% BSA was added, and the
190 samples were centrifuged at 20000 x g at 4°C for 10 min. The supernatants were collected and
191 the pH was adjusted to 6.5 with 10 mol/l NaOH and 2 mol/l Tris-HCl buffer (pH 7.4). Apelin
192 was extracted from plasma by mixing the supernatant with 0.3 ml of 0.1% BSA in H2O and 1
193 ml of 1% trifluoroacetic acid (TFA) - 0.1% BSA, and running the mixture on a Sep-Pak C18
194 cartridge (Waters) previously washed with 2 ml 100% acetonitrile and equilibrated with 5 ml
195 1% TFA - 0.1% BSA. The columns then were washed with 3 ml 1% TFA - 0.1% BSA and
196 apelin was eluted with 1.5 ml 100% acetonitrile. […]
208 Plasma or brain apelin levels w ere deter mined by RIA. Samples (0.1ml) w ere mixed with 125I-
211 dilution: 1/4500) to give a total volume of 0.2 ml and were incubated at 4°C overnight. We
as §2, §3
215 We then added 0.5 ml of Amerlex (Amersham RPN 510), and the resulting mixture was
216 incubated for 10 min at room temperature. The tubes were centrifuged at 2600 x g at 4°C for
217 20 min. The supernatant was removed and the radioactivity of the precipitates was measured.
218 We assessed the cross-reactivity of the apelin antiserum with various N- and C-terminally
232 according to the following equation: [plasma apelin] tx = [plasma apelin] t0 * e(-kt) , where k is
233 the elimination rate constant. […]

mice = assay: Left ventricular ejection fraction by echocardiography in mice; assay type: in vivo, mouse
Protocol: LVEF was determined in mice under isoflurane anesthesia at baseline and 3 h after s.c. administration of the compound, as previously described.

CSCC[C@H](NC(=O)[C@@H]1CCCN1C(=O)CNC(=O)[C@H](CCCCN)NC(=O)[C@H](Cc1c[nH]cn1)NC(=O)[C@H](CO)NC(=O)[C@H](CC(C)C)NC(=O)[C@H](CCCNC(=N)N)NC(=O)[C@@H]1CCCN1C(=O)[C@H](CCCNC(=N)N)NC(=O)[C@H](CCC(N)=O)NC(=O)[C@H](CCCNC(=N)N)NC(=O)[C@H](CCCNC(=N)N)NC(=O)[C@H](Cc1ccccc1)NC(=O)[C@H](CCCCN)NC(=O)CCC(F)(F)C(F)(F)C(F)(F)C(F)(F)C(F)(F)C(F)(F)C(F)(F)C(F)(F)F)C(=O)N1CCC[C@H]1C(=O)N[C@@H](Cc1ccccc1)C(=O)O [LIT01-196]
SBP_3h ([1]; 900 nmol/kg SC, 3h, individual animals (Fig. S5A source data)): 100.529 and 94.7199 and 92.7855 and 89.7756 and 91.9306
SBP_24h ([1]; 900 nmol/kg SC, 24h, individual animals (Fig. S5A source data)): 122.566 and 101.322 and 101.468 and 97.9055
SBP_Baseline ([1]; 900 nmol/kg SC, baseline, individual animals (Fig. S5A source data)): 113.98 and 106.154 and 101.631 and 106.857 and 101.074
MABP 24 h after administration ([1]; 900 nmol/kg s.c., alert rats): did not significantly differ from baseline
mean arterial blood pressure (MABP) 3 h after administration ([1]; 900 nmol/kg s.c., alert rats, n = 5, baseline 106 ± 2, p = 0.063): 94 ± 2 mmHg
dDAVP-induced cAMP production (apelin-R and V2-R): dose-dependently inhibits
plasma AVP levels versus AVP-treated rats receiving saline (hyponatremic rats; 900 nmol/kg s.c., 3 h): No significant difference
increase in plasma apelin-IR/AVP ratio relative to saline (hyponatremic rats; 900 nmol/kg s.c., 3 h, hyponatremic rats): 518%
plasma apelin-IR material levels, higher than AVP + saline (hyponatremic rats; 900 nmol/kg s.c., 3 h, n = 5): 372%
Plasma AVP (hyponatremic rats; AVP 30 ng/h rats, LIT01-196 900 nmol/kg SC, individual animals (Fig. 6A source data)): 26.2192 and 47.0941 and 28.2654 and 46.4247 and 26.8381
Plasma apelin (hyponatremic rats; AVP 30 ng/h rats, LIT01-196 900 nmol/kg SC, individual animals (Fig. 6B source data)): 2578 and 2160 and 2508 and 1740 and 2599
Apelin to AVP ratio (hyponatremic rats; AVP 30 ng/h rats, LIT01-196 900 nmol/kg SC, individual animals (Fig. 6C source data)): 98.309 and 45.8759 and 88.7295 and 37.4882 and 96.8538
Plasma creatinine ([2]; 900 nmol/kg SC, individual animals (Fig. S5G source data)): 21 and 24 and 22
Blood urea nitrogen ([2]; 900 nmol/kg SC, individual animals (Fig. S5H source data)): 7 and 8 and 5.6 and 6.8 and 6.1
Plasma potassium ([2]; 900 nmol/kg SC, individual animals (Fig. S5J source data)): 4.54 and 4.76 and 5.03 and 4.26 and 4.35
Plasma glucose ([2]; 900 nmol/kg SC, individual animals (Fig. S5K source data)): 8.1 and 9.1 and 7.4 and 8 and 7.6
24h Urine glucose ([2]; 900 nmol/kg SC, individual animals (Fig. S5L source data)): 0.04364 and 0.0331 and 0.0123 and 0
blood creatinine, urea nitrogen, sodium, and potassium levels ([2]; 900 nmol/kg s.c. for 4 days, rats): not changed
plasma or urine glucose levels ([2]; repeated 900 nmol/kg s.c., normonatremic rats): not associated with a change
plasma apelin levels (in vivo; Sprague-Dawley rats, 30 min after s.c. 900 nmol/kg, basal 0.36 ± 0.05, n = 5): 1.3 ± 0.22 pmol/mL
in vivo half-life in the blood circulation, i.v. (in vivo; alert rats, 15 nmol/kg i.v., RIA): 0.467 h
in vivo half-life in the blood circulation, s.c. (in vivo; alert rats, 900 nmol/kg s.c., RIA): 2.6 h
Apelin (plasma apelin-immunoreactive level) (in vivo; rats, 15 nmol/kg IV, time 5 min): 3.535 and 7.0448
Apelin (plasma apelin-immunoreactive level) (in vivo; rats, 15 nmol/kg IV, time 7.5 min): 6.127 and 4.75 and 3.783
Apelin (plasma apelin-immunoreactive level) (in vivo; rats, 15 nmol/kg IV, time 10 min): 3.32 and 4.264
Apelin (plasma apelin-immunoreactive level) (in vivo; rats, 15 nmol/kg IV, time 15 min): 3.56 and 2.876 and 2.207
Apelin (plasma apelin-immunoreactive level) (in vivo; rats, 15 nmol/kg IV, time 60 min): 1.212 and 1.2225
Apelin (plasma apelin-immunoreactive level) (in vivo; rats, 900 nmol/kg SC, time 60 min): 3.999 and 3.58
Apelin (plasma apelin-immunoreactive level) (in vivo; rats, 900 nmol/kg SC, time 120 min): 2.002 and 1.919 and 1.949
Apelin (plasma apelin-immunoreactive level) (in vivo; rats, 900 nmol/kg SC, time 270 min): 1.1931 and 0.8899 and 1.066
Apelin (plasma apelin-immunoreactive level) (in vivo; rats, 900 nmol/kg SC, time 360 min): 1.029 and 0.9091 and 0.7789
Apelin (plasma apelin-immunoreactive level) (in vivo; rats, 900 nmol/kg SC, time 1440 min): 0.4742 and 0.5151 and 0.6469
plasma apelin levels, times higher than basal levels (in vivo; rats, 30 min after s.c. 900 nmol/kg): 3.6 times
FEVG.TM. 3 hours (mice; 1200 nmol/kg SC, 3 hours, individual animals (Fig. S5B source data)): 55.1558 and 58.4253 and 55.5031 and 58.4836 and 58.0536
FEVG.TM. Baseline (mice; 1200 nmol/kg SC, baseline, individual animals (Fig. S5B source data)): 49.7762 and 61.2453 and 58.1457 and 44.7681 and 49.1413
LVEF 3 h after administration (mice; 1200 nmol/kg s.c., mice, n = 5, 52.6 ± 3.0 before administration, p = 0.31): 57.1 ± 0.7%
